From patent EP1409500B1, “ALKYLATED INOSITOLGLYCANS AND THEIR USES” (Rodaris Pharmaceuticals Limited, priority 2000, dated 2001)

Experiments:
[1] = tested on: PDH phosphatase; assay: PDH phosphatase activation assay; format: biochemical; conditions: 100µM
Excerpt: (§1) Methods for obtaining A-type and P-type mediators are set out in Caro et al, 1997, and in WO98/11116 and WO98/11117. Protocols for determining characteristic IPG biological activities such as PDH activation, PKA inhibition, acetylCoA activation, fructose-1,6-bis-phosphatase activity and lipogenesis are well known in the art, e.g. as described in Caro et al^[14].
(§2) The compounds of the invention can be tested for one or more the characteristic IPG-P and/or IPG-A activities mentioned above to determine whether they will be suitable for use a IPG mimetics or antagonists. Preferred assays measure the effect of the compounds on PDH phosphatase, PKA or lipogenesis. Protocols for these assays are provided in Caro et al ^[14]. The compounds can also be tested to determine whether they activate or inhibit other enzymes involved in insulin signalling mechanism, such as glucose-6-phosphatase.
In particular, preferred compounds having 1,6 linkages are good activators of PDH phosphatase activity.

[2] = tested on: PKA; assay: PKA inhibition assay; format: biochemical
Excerpt: as §1, §2

| PDH % activation [1] | Compound | PKA % inhibition ([2]; 0.1µM) | PKA % inhibition ([2]; 1µM) | PKA % inhibition ([2]; 10µM) |
| --- | --- | --- | --- | --- |
| 65% | CO[C@H]1[C@H](O)[C@@H](O)[C@@H](O[C@H]2O[C@H](CO)[C@@H](O)[C@H](O)[C@H]2N)[C@H](O)[C@@H]1O [RGL1024, O-(2-amino-2-deoxy-D-glucopyranosyl)-α(1,6)-D-3-O-methyl-chiro-inositol.] | 17% | 34% | 2% |
| 17% | CO[C@H]1[C@H](O)[C@@H](O)[C@@H](O[C@H]2O[C@H](CO)[C@H](O)[C@H](O)[C@H]2N)[C@H](O)[C@@H]1O [RGL1025, O-(2-amino-2deoxy-D-galactopyranosyl)-α(1,6)-D-3-O-methyl-chiro-inositol.] | 48% | -13% | – |
| 38% | CO[C@H]1[C@H](O)[C@@H](O)[C@@H](O[C@@H]2O[C@H](CO)[C@@H](O)[C@H](O)[C@H]2N)[C@H](O)[C@@H]1O [RGL1015, O-(2-amino-2-deoxy-D-glucopyranosyl)-β(1,6)-D-3-O-methyl-chiro-inositol.] | 14% | 15% | – |
